According to patent US5582837A, “Alkyl-substituted cellulose-based sustained-release oral drug dosage forms” (priority 1995, dated 1996):

Test system: isolated colon section
Conditions: rabbit, in vivo
Description: Each rabbit was anesthetized using an intramuscular injection of xylazine and ketamine, given at 5-8 mg/kg and 35-40 mg/kg, respectively. The abdomen and the cervical area was then shaved. A surgical cutdown was performed to place a catheter into the jugular vein for maintaining anesthesia throughout the entire exposure period. The maintenance anesthesia was sodium pentobarbitol given at 13 mg/kg as needed. An endotracheal tube was then inserted to facilitate normal respiration.
In the anesthetized animal model a section of the colon, immediately proximal to the cecum, was isolated with the mesenteric vascular system intact. Two ligatures were placed approximately 15-20 cm apart around the colon section. The isolated section was then freed from the remaining intestine by cutting between the ligatures, taking care to leave the vascular and nervous systems intact. A longitudinal incision was made along the entire length of the isolated colon section and the fecal material removed. The isolated colon section is then placed onto a three-cell test chamber which forms the floor of the test cell. The test cell is continuously perfused with Lactated Ringer's solution at a rate of 2.2 ml per minute using a Model 975 Harvard pump. The test chamber is allowed to equilibrate for one hour to maintain a constant temperature of 37° C. (±2° C.). […]
A quantity of the test material was chosen such that the total milligram amount of aspirin delivered over the 6-hour exposure period was equal to the total dose of aspirin provided by the positive control.
After 6 hours of continuous exposure, each rabbit was euthanized using an intravenous injection of sodium pentobarbitol given at approximately 100 mg/kg. The isolated section of exposed colon was removed from the intestine and evaluated for macroscopic evidence of irritation for both degree (0-4) and area (0-6.40 cm^2). […]

## CC(=O)Oc1ccccc1C(=O)O [Aspirin, aspirin]
  Mean Irritation Area: 4.48 cm^2
  Mean Irritation Index: 17.93
  Mean Irritation Source: 4.00
